The source made the active and inactive calls. The calls are words filed in the database; no cut-off is given here.
Columns and labels:
[1] = tested on: Bombyx mori; assay: Juvenile hormone like activity in fourth-instar larvae of Bombyx mori C146 x N137 assessed as induction of precocious metamorphosis at > 40 ug/larvae applied topically; format: functional
[2] = tested on: Bombyx mori; assay: Juvenile hormone like activity in fourth-instar larvae of Bombyx mori C146 x N137 assessed as induction of precocious metamorphosis applied topically; format: functional
[3] = tested on: Bombyx mori; assay: Juvenile hormone like activity in fourth-instar larvae of Bombyx mori C137 x N137 assessed as induction of precocious metamorphosis at > 40 ug/larvae applied topically; format: functional
[4] = tested on: Bombyx mori; assay: Juvenile hormone like activity in fourth-instar larvae of Bombyx mori C137 x N137 assessed as induction of precocious metamorphosis applied topically; format: functional
[5] = tested on: Bombyx mori; assay: Toxicity in third-instar larvae of Bombyx mori at 160 ug applied topically; format: organism-based; settings: in vivo, topical_or_ocular
[6] = tested on: Bombyx mori; assay: Juvenile hormone like activity in third-instar larvae of Bombyx mori assessed as spun cocoons at fifth-instar at 5 to 160 ug applied topically; format: functional, organism-based
[7] = tested on: Bombyx mori; assay: Juvenile hormone like activity in third-instar larvae of Bombyx mori assessed as spun cocoons at fourth-instar at 5 to 160 ug applied topically; format: functional, organism-based
[8] = tested on: Bombyx mori; assay: Juvenile hormone like activity in fourth-instar larvae of Bombyx mori assessed as induction of precocious metamorphosis at 40 ug/larvae applied topically in presence of 1 ug of methoprene; format: functional
[9] = tested on: Bombyx mori; assay: Juvenile hormone like activity in fourth-instar larvae of Bombyx mori assessed as induction of precocious metamorphosis at 40 ug/larvae applied topically in presence of 0.5 ug of methoprene; format: functional
[10] = tested on: Bombyx mori; assay: Juvenile hormone like activity in fourth-instar larvae of Bombyx mori assessed as induction of precocious metamorphosis at 40 ug/larvae applied topically in presence of 0.1 ug of methoprene; format: functional
[11] = tested on: Bombyx mori; assay: Juvenile hormone like activity in fourth-instar larvae of Bombyx mori assessed as induction of precocious metamorphosis at 40 ug/larvae applied topically; format: functional
[12] = tested on: Bombyx mori; assay: Juvenile hormone like activity in fourth-instar larvae of Bombyx mori C137 x N137 assessed as induction of precocious metamorphosis at > 60 ug/larvae applied topically; format: functional
[13] = tested on: Bombyx mori; assay: Juvenile hormone like activity in fourth-instar larvae of Bombyx mori assessed as induction of precocious metamorphosis at 1 ug applied topically; format: functional

| Structure (SMILES) | Activity [1] [%] | ED50 [2] [µg] | ED50 [4] [µg] | further results |
| --- | --- | --- | --- | --- |
| COc1cccc(COc2cccc(-c3cncn3C(C)C)c2)c1 | 25 | >40 |  |  |
| CCCCn1cncc1-c1cccc(OCc2ccccc2)c1 |  |  | 40 | Activity [3]: 0% |
| CC(C)Cn1cncc1-c1ccc(Oc2ccccc2)cc1 |  |  | 55.5 | Activity [5]: Toxic |
| CC(C)n1cncc1-c1ccccc1OCc1ccccc1 |  |  | 40 | Activity [3]: 0% |
| CC(Oc1cccc(-c2cncn2C(C)C)c1)c1ccccc1 (stereo unspecified) | 0 | >40 |  |  |
| CCCCCCOc1cccc(-c2cncn2C(C)C)c1 | 35 | >40 |  |  |
| CC(C)n1cncc1-c1cccc(OCc2ccccc2)c1 |  | 13.2 | 0.9 | Activity [5]: Toxic; Activity [6]: Active; Activity [7]: Active; Activity [8]: 0%; Activity [9]: 30%; Activity [10]: 70%; Activity [11]: 100% |
| CCCn1cncc1-c1cccc(OCc2ccccc2)c1 |  |  | 21.1 |  |
| CC(C)n1cncc1-c1cccc(OCc2ccc(Cl)cc2)c1 | 20 | >40 |  |  |
| CC(C)n1cncc1-c1cccc(OCc2ccccc2Cl)c1 | 0 | >40 |  |  |
| CC(C)Cn1cncc1-c1cccc(Oc2ccccc2)c1 |  |  | 14.7 | Activity [6]: Active; Activity [7]: Active |
| CC(C)n1cncc1-c1cccc(OCCc2ccccc2)c1 | 20 | >40 |  |  |
| c1ccc(COc2cccc(-c3cncn3Cc3ccccc3)c2)cc1 |  |  | 40 | Activity [3]: 0% |
| CCn1cncc1-c1cccc(OCc2ccccc2)c1 |  |  | 30.2 |  |
| CC(C)(C)Cn1cncc1-c1cccc(OCc2ccccc2)c1 |  |  | 40 | Activity [3]: 0% |
| Cn1cncc1-c1cccc(OCc2ccccc2)c1 |  |  | 60 | Activity [12]: 0% |
| COc1ccc(COc2cccc(-c3cncn3C(C)C)c2)cc1 | 15 | >40 |  |  |
| CC(C)n1cncc1-c1cccc(O)c1 |  |  | >40 | Activity [3]: 0% |
| COc1cccc(-c2cncn2C(C)C)c1 | 0 | >40 |  |  |
| CC(C)Cn1cncc1-c1cccc(OCc2ccccc2)c1 |  |  | 28 |  |
| CC(C)n1cncc1-c1cccc(OCc2cccc(Cl)c2)c1 | 5 | >40 |  |  |
| CC(C)n1cncc1-c1cccc(Oc2ccccc2)c1 |  | 53.3 | 21.6 |  |
| CC(C)=CCC/C(C)=C/COc1cccc(-c2cncn2CC(C)C)c1 |  |  | >40 | Activity [3]: 0% |
| CC(C)COc1cccc(-c2cncn2C(C)C)c1 | 35 | >40 |  |  |
| COC(C)(C)CCC[C@H](C)C/C=C/C(C)=C/C(=O)OC(C)C [METHOPRENE] |  |  |  | Activity [13]: 0% |
| CC(C)n1cncc1-c1cccc(OCc2ccc(F)cc2)c1 |  | >40 |  |  |
| CC(C)n1cncc1-c1ccc(OCc2ccccc2)cc1 |  |  | 40 | Activity [3]: 30% |
| CCCCCCCCOc1cccc(-c2cncn2C(C)C)c1 | 25 | >40 |  |  |
| CC(C)=CCC/C(C)=C/COc1cccc(-c2cncn2C(C)C)c1 | 0 | >40 |  |  |

Source: ChEMBL document CHEMBL3045242, “Synthesis and Insect Growth Regulatory Activity of 1,5-Disubstituted Imidazoles with Non-terpene Chains” (Agric Biol Chem, 1991)
